According to patent publication US7390870B2, “Immune-enhancing peptides” (Posco, priority 2001, dated 2008):
No end group written: not given here.

Tests used:
[1] = test system: human neutrophils; experiment: [Ca2+]i increase in human neutrophils (fura-2); assay type: cell-based; conditions: FIG. 4A; 1 μM peptide
Description: (§1) The level of [Ca^2+]i was determined by Grynkiewicz's method using fura-2/AM (21). Briefly, prepared cells were incubated with 3 μM fura-2/AM at 37° C. for 50 minutes in a fresh serum-free RPMI 1640 medium under continuous stirring. 2×10^6 cells were aliquoted for each assay in Ca^2+-free Locke's solution (154 mM NaCl, 5.6 mM KCl1.2 mM MgCl2, 5 mM HEPES, pH 7.3, 10 mM glucose, and 0.2 mM EGTA). The fluorescence changes at the dual excitation wavelengths of 340 nm and 380 nm and the emission wavelength of 500 nm were measured, and the calibrated fluorescence ratio was translated into [Ca^2+]i.
(§2) From the fact that HFYLPM, MFYLPM, and HFYLPm stimulate human monocytes, effects of the peptides on other leukocytes such as neutrophils were evaluated. Prepared human primary monocytes, neutrophils, cultured HL60, Jurkat, U937, NIH3T3, 3Y1, 3T3L1, and PC12 cells were loaded with fura-2 and stimulated with effective concentrations of the three peptides (1 μM for monocyte and neutrophil; 10 μM for HL60 and Jurkat; 20 μM for U937, NIH3T3, 3Y1, 3T3L1, and PC12). The peak level of the [Ca^2+]i increase was recorded and superoxide generation was measured using cytochrome c reduction assay. The results are shown FIG. 4. The data of FIG. 4 are presented as means ±S.E. from at least three independent experiments.

[2] = test system: 3T3L1 (preadipocyte); experiment: [Ca2+]i rise in 3T3L1 cells (fura-2); assay type: cell-based; conditions: FIG. 4A; 20 μM peptide
Description: as §1, §2

[3] = test system: human neutrophils; experiment: Superoxide generation by human neutrophils (cytochrome c reduction assay); assay type: cell-based; conditions: FIG. 4B; 10 μM of each peptide
Description: For initial screening of the PS-SPCLs, the superoxide anion generation of each peptide pool was evaluated by measuring reduction of cytochrome c using a microtiter 96 well plate ELISA reader (Bio-Tekinstruments, EL312e, Winooski, Vt.) as described (20). The cytochrome c was purchased from Sigma (St. Louis, Mo.). The human monocytes (9×10^5 cells/100 □ of RPMI 1640 medium per well of a 96-well plate) were preincubated with 50 μM cytochrome c at 37° C. for 1 minute and then incubated with the indicated concentrations of peptide pools (final 0.5 nM per peptide sequence for the initial screening). The superoxide generation was measured as change in light absorption at 550 nm over 5 minutes at 1 minute intervals. From at least four independent experiments, peptides with active amino acids at each position were chosen. Superoxide generation by the identified peptides was measured by the same method. Spurious reduction of cytochrome c was ruled out by checking that the peptides-induced ones were superoxide dismutase-inhibitable in all experiments.
From the fact that HFYLPM, MFYLPM, and HFYLPm stimulate human monocytes, effects of the peptides on other leukocytes such as neutrophils were evaluated. […] The peak level of the [Ca^2+]i increase was recorded and superoxide generation was measured using cytochrome c reduction assay. […]

[4] = test system: monocytes; experiment: Receptor specificity: monocyte chemotaxis after preincubation with a peptide; assay type: cell-based, human; conditions: FIG. 9, preincubation 10 μM peptide 10 minutes
Description: Chemotaxis assays of the peptide were performed using multiwell chambers (Neuroprobe Inc., Gaithersburg, Md.) (20). Briefly, the prepared isolated human monocytes were suspended in RPMI at a concentration of 1×10^6 cells/ml of serum-free RPMI, and 25 □ of the suspension were placed onto the upper well of a 96-well chemotaxis chamber that was separated by a […] filter with a 5 □ pore size (3 □ diameter pores not coated with polyvinylpyrrolidone for neutrophils) from peptides or an fMLF-containing lower well. After incubation for 2 hours (90 minutes for neutrophils) at 37° C., non-migrated cells were removed by scraping them out, and cells that migrated across the filter were dehydrated, fixed, and stained with hematoxylin (Sigma, St. Louis, Mo.). The stained cells in five randomly chosen high power fields (HPF) (400×) in that well were then counted (21). The numbers of migrated cells were determined by counting them in a high power field (400×). For a checkboard analysis, cells were re-suspended in RPMI containing various concentrations of the peptide just before transferring them to the upper wells as described before (22).
The three peptides, HFYLPM, MFYLPM, and HFYLPm which have similar sequences, exerted similar effects on human leukocytes in that they stimulated superoxide generation and chemotactic migration involving PTX-sensitive G-protein(s). So an attempt to reveal whether the three peptides acted through the same or different receptor(s) was carried out. For this purpose, monocytes were preincubated with 10 μM of each peptide, HFYLPM, MFYLPM, or HFYLPm for 10 minutes at 37° C., or they remained untreated. After washing twice, the cells were used for chemotaxis assay. The cells were allowed to migrate towards the maximal effective concentrations of each peptide (1 μM HFYLPM, 1 μM MFYLPM, or 10 nM HFYLPm) or medium. After fixing and staining of the membrane, migrated cells were quantified microscopically. […]

Substance: Met-Phe-Tyr-Leu-Pro-Met-CONH2 (MFYLPM-NH2)
- [Ca2+]i increase in neutrophils [1]: increase their [Ca^2+]i
- [Ca2+]i rise in 3T3L1 cells [2]: no response
- superoxide generation by neutrophils [3]: generate superoxides
- inhibition of HFYLPm-induced cell migration by preincubation with peptide ([4]; migration towards 10 nM HFYLPm): no inhibition
- inhibition of HFYLPm-induced cell migration by preincubation with peptide ([4]; migration towards 1 μM HFYLPM): partial inhibition
- inhibition of MFYLPM-induced cell migration by preincubation with peptide ([4]; migration towards 1 μM MFYLPM): complete inhibition
